According to ChEMBL document CHEMBL1781957, “Selective and potent agonists for estrogen receptor beta derived from molecular refinements of salicylaldoximes” (Eur J Med Chem, 2011):

Columns and labels:
[1] = molecular target: T1, Estrogen receptor (Homo sapiens) (UniProt P03372); assay: Displacement of [3H]-estradiol from human full-length ERalpha receptor by competitive radiometric binding assay relative to estradiol
T1 sequence (whole entry): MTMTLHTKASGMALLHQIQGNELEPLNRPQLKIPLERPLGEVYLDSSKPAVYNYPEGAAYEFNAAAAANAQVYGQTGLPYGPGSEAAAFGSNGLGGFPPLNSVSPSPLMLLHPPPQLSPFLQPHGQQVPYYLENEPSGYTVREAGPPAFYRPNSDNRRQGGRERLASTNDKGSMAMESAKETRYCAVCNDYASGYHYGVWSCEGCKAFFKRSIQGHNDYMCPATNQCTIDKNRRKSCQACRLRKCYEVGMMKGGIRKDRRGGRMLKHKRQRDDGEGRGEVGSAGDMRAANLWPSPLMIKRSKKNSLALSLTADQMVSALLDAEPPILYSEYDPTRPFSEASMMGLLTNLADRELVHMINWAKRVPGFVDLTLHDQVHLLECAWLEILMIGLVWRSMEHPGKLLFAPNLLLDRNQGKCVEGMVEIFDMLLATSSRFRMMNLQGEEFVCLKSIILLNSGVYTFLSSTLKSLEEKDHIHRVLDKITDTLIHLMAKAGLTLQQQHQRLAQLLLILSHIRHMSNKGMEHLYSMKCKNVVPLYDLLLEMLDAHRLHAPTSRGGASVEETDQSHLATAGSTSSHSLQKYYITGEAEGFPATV

[2] = molecular target: T2, Estrogen receptor beta (Homo sapiens, UniProt Q92731); assay: Displacement of [3H]-estradiol from human full-length ERbeta receptor by competitive radiometric binding assay relative to estradiol
[3] = molecular target: T1, Estrogen receptor (Homo sapiens); assay: Agonist activity at human full-length ERalpha receptor expressed in human HEC1 cells co-expressing (ERE)2-pS2-luc gene assessed as transcriptional activation after 24 hrs by luciferase reporter gene assay relative to estradiol; format: functional, cell-based; conditions: HEC-1
[4] = molecular target: T2, Estrogen receptor beta; assay: Agonist activity at human full-length ERbeta receptor expressed in human HEC1 cells co-expressing (ERE)2-pS2-luc gene assessed as transcriptional activation after 24 hrs by luciferase reporter gene assay relative to estradiol; format: functional, cell-based; conditions: HEC-1
[5] = molecular target: T3, Estrogen receptor (Homo sapiens, UniProt P03372)
T3 sequence (P03372 whole entry): T1 sequence (whole entry)

[6] = molecular target: T2, Estrogen receptor beta
[7] = molecular target: T2, Estrogen receptor beta; remark: listed apart in the source

T2 sequence (Q92731 whole entry): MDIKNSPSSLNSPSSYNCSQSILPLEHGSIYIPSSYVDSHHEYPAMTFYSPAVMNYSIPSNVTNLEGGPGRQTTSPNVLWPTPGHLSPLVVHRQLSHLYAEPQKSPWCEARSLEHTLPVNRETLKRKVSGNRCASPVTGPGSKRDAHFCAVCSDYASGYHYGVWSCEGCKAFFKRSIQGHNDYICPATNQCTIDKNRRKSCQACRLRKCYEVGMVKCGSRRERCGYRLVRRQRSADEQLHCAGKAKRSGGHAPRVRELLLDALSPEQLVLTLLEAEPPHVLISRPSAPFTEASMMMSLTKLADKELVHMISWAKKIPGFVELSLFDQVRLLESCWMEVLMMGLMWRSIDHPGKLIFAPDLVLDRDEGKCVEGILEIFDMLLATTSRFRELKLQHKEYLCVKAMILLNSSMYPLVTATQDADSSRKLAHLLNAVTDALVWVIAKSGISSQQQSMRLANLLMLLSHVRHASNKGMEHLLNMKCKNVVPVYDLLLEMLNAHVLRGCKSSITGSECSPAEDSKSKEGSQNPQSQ

Row | SMILES | RBA [1] [%] | RBA [2] [%] | Emax [3] [%] | Emax [4] [%] | EC50 [5] [nM] | EC50 [6] [nM] | Ki [7] [nM]
1 | Cc1c(-c2ccc(O)cc2)cc(Cl)c(O)c1/C=N/O | 1.47 | 15.8 |  |  |  |  | 
2 | O/N=C/c1c(O)ccc(-c2ccc(O)cc2)c1-c1ccc(O)cc1 | 88.4 | 101 | 90 | 80 | 0.3 | 0.5 | 
3 | O/N=C/c1c(O)ccc(-c2ccc(O)c(F)c2)c1Cl | 1.88 | 87.1 | 100 | 100 | 8.4 | 1.3 | 0.57
4 | Cc1cc(-c2ccc(O)cc2)c(Cl)c(/C=N/O)c1O | 0.074 | 0.64 |  |  |  |  | 
5 | O/N=C/c1c(O)ccc(-c2ccc(O)cc2)c1Cl | 4.46 | 130 | 100 | 100 | 0.58 | 0.23 | 0.38
6 | Cc1c(-c2ccc(O)c(F)c2)cc(Cl)c(O)c1/C=N/O | 0.39 | 7.9 |  |  |  |  | 
7 | O/N=C/c1ccc(-c2ccc(O)cc2)c(-c2ccc(O)cc2)c1O | 0.92 | 0.35 |  |  |  |  | 
